Non-standard residues stand in square brackets, D forms with d. Residues, ends and D or L forms follow the SMILES beside them.
Experiments:
MTT cell viability assay = format: cell-based, rat; settings: rat, cell viability
Experimental: (§1) Rat PC12 (pheochromocytoma) cells (Leibniz Institute DSMZ, Braunschweig, Germany) were cultivated in Dulbecco’s Modified Eagle Medium (DMEM) supplemented with 10% fetal bovine serum, 5% horse serum and 1% penicillin-streptomycin. 10,000 cells per well were seeded on collagen A-coated 96-well plates (Thermo Fisher Scientific, Waltham, USA) and incubated in a 95% humidified atmosphere with 5% CO2 at 37 °C for 24 h. Samples with untreated RD2 and RD2 or HSM-3 purified from human liver microsomes (see 2.8) in 10 mM sodium phosphate buffer (pH 7.4) were prepared. Buffer without peptides and Triton X-100 (cytotoxic compound) served as controls. The samples were added to the PC12 cells in quadruple and incubated in 95% humidified atmosphere with 5% CO2 at 37 °C for 24 h. Final concentrations were 2 µM untreated RD2, purified RD2, purified HSM-3 and 0.125% Triton X-100. Cell viability was then measured using the Cell Proliferation Kit I (MTT) (Roche, Basel, Switzerland) according to the manufacturer’s instruction. The final absorbance of the formazan product was determined as the absorbance at 570 nm subtracted by the absorbance at 660 nm. All results were normalized to cells that were treated with buffer only. The experiments were performed in triplicate.

[1] = system: Rat PC12 (pheochromocytoma) cells; assay: MTT cell viability assay; format: cell-based; settings: rat, 24 h, 2 µM
Experimental: as §1

[2] = Comparison of RD2 metabolite profiles across species: rat liver microsomes; format: in vitro ADME
Experimental: (§2) The preparation of the media was performed as described before in Elfgen et al.[24]. Preparation of simulated gastric and intestinal fluid (SGF & SIF) was done according to the European Pharmacopoeia 7.0. Plasma samples were obtained from human blood of a volunteer donor. Pooled human liver microsomes were purchased from Sekisui XenoTech (Kansas City, USA; H1000, Lot: 0710494 and 1210270; H1500, Lot: 1210079), from Sigma-Aldrich (St. Louis, USA; M0692, Lot: SLBL1433V; M0567, Lot: SLBR2706V and SLBN7300V) and from Gibco, Thermo Fisher Scientific (Waltham, USA; HMMCPL, Lot: PL050; HMMCPM, Lot: PL039). Pooled Sprague Dawley rat liver microsomes were purchased from Sigma-Aldrich (St. Louis, USA; M9066, Lot: SLBN0707V) and from Gibco, Thermo Fisher Scientific (Waltham, USA; RTMCPL, Lot: RT053). Pooled cynomolgus monkey liver microsomes were purchased from Gibco, Thermo Fisher Scientific (Waltham, USA; MKMCPL, Lot: MK062) and from Sekisui XenoTech (Kansas City, USA; P2000, Lot: 1210334). The liver microsomes were diluted in an NADPH regenerating system (NRS).
For the stability tests, 150 µM RD2 or L-RD2 was incubated in SGF, SIF, human plasma and human liver microsomes in triplicate at 37 °C with slight shaking for different time periods. To prevent microbial contaminations in long-term plasma incubations, 0.1% sodium azide was added to the solutions. Microsomal long-term activity was examined by incubating microsomes without peptide for up to 24 h and adding L-RD2 after 8 and 24 h. The ability to degrade L-RD2 served as indicator for their activity. For the comparison of RD2 metabolite profiles across species, 150 µM RD2 was incubated in human, rat and cynomolgus liver microsomes at 37 °C for 2 and 24 h. […]
For the comparison of RD2 metabolite profiles across species (see 2.3), mobile phases were acetonitrile (A) and water (B) each supplemented with 0.1% TFA. […] The amount of the purified HSM-3 was calculated based on a calibration curve of 10 to 100 µM RD2 extracted from human liver microsomes.

cynomolguses = settings: cynomolgus monkey, in vivo, po; cited from earlier work
[3] = Stability in human liver microsomes, RP-HPLC / UHPLC-ESI-QTOF-MS; format: in vitro ADME
Experimental: as §2
For the stability tests, 150 µM RD2 or L-RD2 was incubated in SGF, SIF, human plasma and human liver microsomes in triplicate at 37 °C with slight shaking for different time periods. To prevent microbial contaminations in long-term plasma incubations, 0.1% sodium azide was added to the solutions. Microsomal long-term activity was examined by incubating microsomes without peptide for up to 24 h and adding L-RD2 after 8 and 24 h. The ability to degrade L-RD2 served as indicator for their activity. For the comparison of RD2 metabolite profiles across species, 150 µM RD2 was incubated in human, rat and cynomolgus liver microsomes at 37 °C for 2 and 24 h. The peptides were extracted by precipitating the proteins with trichloroacetic acid (TCA) and subsequent centrifugation, as described previously in Elfgen et al.[24]. Peptides immediately extracted from the media and precipitated media without peptides served as controls.
For sample analysis from stability tests (see 2.3), mobile phases were acetonitrile (A) and water (B) each supplemented with 0.15% trifluoroacetic acid (TFA) (v/v). The samples were measured isocratically at 10% solvent A for 30 min. This run conditions allowed us to detect smallest chemical changes including the differentiation between the original compound and a deamidated version (Fig. S1). RD2 and L-RD2 can potentially be deamidated at two sites, the C-terminus and the asparagine at position seven. Peak areas of the unmetabolized peptides after different incubation times were normalized to the peptides’ peak areas after direct extraction from the media. […] A chromatographic metabolite profile of L-RD2 in SIF was recorded with the same mobile phases but using a gradient from 0 to 30% solvent A in 30 min. […]

CYP2D6 = CYP2D6 (Homo sapiens, UniProt P10635); assay: CYP isoform inhibition in human liver microsomes (Cyprotex); format: in vitro ADME
Experimental: The experiments were performed by Cyprotex. […] All assays were performed sevenfold.

CYP3A4 = CYP3A4 (Homo sapiens, UniProt P08684); assay: as above
Experimental: (§3) The experiments were performed by Cyprotex. […] The reactions were terminated by methanol and the generated metabolites were monitored by LC-MS/MS or fluorescence. […] All assays were performed sevenfold. […] For all other substrates, the termination plates were centrifuged at 2,500 rpm and 4 °C for 30 min and aliquots of the supernatants were combined and transferred to fresh 96-well plates. Formic acid in deionized water (final concentration 0.1%) containing internal standard was added to the supernatants prior to cassette analysis by LC-MS/MS. A decrease in the formation of the metabolite compared to the vehicle control was used to calculate the IC50 values.

CYP2C9 = CYP2C9 (Homo sapiens, UniProt P11712); assay: as above
Sequence of CYP2C9 (P11712 whole entry): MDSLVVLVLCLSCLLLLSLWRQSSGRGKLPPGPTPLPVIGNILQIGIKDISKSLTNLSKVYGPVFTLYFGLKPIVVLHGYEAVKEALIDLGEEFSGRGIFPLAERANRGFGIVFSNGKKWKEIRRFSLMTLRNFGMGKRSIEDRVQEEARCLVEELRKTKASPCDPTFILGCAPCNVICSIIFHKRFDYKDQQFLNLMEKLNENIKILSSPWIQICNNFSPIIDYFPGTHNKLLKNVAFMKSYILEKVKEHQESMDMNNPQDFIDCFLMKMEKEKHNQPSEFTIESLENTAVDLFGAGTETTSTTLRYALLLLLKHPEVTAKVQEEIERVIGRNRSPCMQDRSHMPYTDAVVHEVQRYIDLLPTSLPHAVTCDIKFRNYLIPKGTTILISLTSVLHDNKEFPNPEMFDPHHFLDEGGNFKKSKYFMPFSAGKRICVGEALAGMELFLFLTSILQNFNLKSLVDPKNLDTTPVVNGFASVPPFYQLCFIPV
Experimental: as §3

Sequence of CYP2D6 (P10635 whole entry, canonical isoform): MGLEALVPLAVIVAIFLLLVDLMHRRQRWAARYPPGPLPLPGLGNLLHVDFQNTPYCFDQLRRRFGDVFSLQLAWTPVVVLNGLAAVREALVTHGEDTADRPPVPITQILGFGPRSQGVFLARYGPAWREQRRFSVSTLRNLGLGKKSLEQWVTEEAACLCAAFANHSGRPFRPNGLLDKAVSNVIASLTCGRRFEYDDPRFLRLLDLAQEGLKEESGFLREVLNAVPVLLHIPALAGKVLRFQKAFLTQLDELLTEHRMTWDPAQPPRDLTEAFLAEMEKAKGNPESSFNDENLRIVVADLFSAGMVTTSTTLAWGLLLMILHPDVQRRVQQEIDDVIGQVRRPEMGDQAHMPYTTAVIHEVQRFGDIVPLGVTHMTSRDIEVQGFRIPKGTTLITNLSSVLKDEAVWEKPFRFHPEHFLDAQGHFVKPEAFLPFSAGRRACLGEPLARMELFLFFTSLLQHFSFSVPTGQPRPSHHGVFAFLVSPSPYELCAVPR
Sequence of CYP3A4 (P08684 whole entry): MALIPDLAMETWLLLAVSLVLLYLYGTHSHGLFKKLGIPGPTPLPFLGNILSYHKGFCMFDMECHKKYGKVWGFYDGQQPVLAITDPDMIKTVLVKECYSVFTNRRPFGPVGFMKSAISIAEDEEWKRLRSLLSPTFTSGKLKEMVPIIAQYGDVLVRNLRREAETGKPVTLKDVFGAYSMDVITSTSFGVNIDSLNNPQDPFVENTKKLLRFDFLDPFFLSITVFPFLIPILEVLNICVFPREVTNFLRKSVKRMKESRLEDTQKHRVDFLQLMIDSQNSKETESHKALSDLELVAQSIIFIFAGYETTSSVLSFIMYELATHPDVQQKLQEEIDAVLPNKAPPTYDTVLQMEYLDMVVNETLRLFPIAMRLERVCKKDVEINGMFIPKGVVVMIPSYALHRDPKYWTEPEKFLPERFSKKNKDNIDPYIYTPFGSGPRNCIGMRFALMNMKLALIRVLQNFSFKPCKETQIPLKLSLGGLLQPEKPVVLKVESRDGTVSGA

Compound `CC(C)C[C@@H](NC(=O)[C@H](NC(=O)[C@H]1CCCN1)[C@H](C)O)C(=O)N[C@H](Cc1c[nH]cn1)C(=O)N[C@@H](C(=O)N[C@H](Cc1c[nH]cn1)C(=O)N[C@H](CC(N)=O)C(=O)N[C@H](CCCNC(=N)N)C(=O)N[C@H](CCCNC(=N)N)C(=O)N[C@H](CCCNC(=N)N)C(=O)N[C@H](CCCNC(=N)N)C(=O)N[C@H](CCCNC(=N)N)C(N)=O)[C@H](C)O` [RD2, ptlhthnrrrrr] (H-[dP][dT][dL][dH][dT][dH][dN][dR][dR][dR][dR][dR]-NH2) has a viability at 24 h, 2 µM (MTT cell viability assay) of 99 ± 4%, a cell viability [1] of 93 ± 6% and a metabolised at 24 h, 150 µM ([2]; Sprague Dawley, pooled rat liver microsomes, rat samples, 24 h, read-out: decrease of the intensity of the RD2 peak) of 17 ± 4%. For the same compound, the “metabolization of RD2 after 2 h” value ([2]; rat liver microsomes, 150 µM, 2 h) was “unmetabolized”, the “toxic effects of orally administered RD2” value (cynomolguses) was “does not cause toxic effects up to high doses” and the peptide metabolized ([3]; 150 µM, 37 °C, within 24 h) was 33 ± 3%. The “deamidation in human liver microsomes” value ([3]; UHPLC-ESI-QTOF-MS) was “not deamidated”, the “inhibition of CYP2D6” value (CYP2D6; concentration range 0 to 25 µM) was “did not inhibit” and the inhibition at 0.25 µM (CYP2D6; human, human liver microsomes, 0.25 µM RD2) was 1.33%. The inhibition at 1 µM (CYP2D6; human, human liver microsomes, 1 µM RD2) was 0.671%, the inhibition at 2.5 µM (CYP2D6; human, human liver microsomes, 2.5 µM RD2) was 3.53% and the inhibition at 10 µM (CYP2D6; human, human liver microsomes, 10 µM RD2) was -5.9%. For the same compound, the inhibition at 25 µM (CYP2D6; human, human liver microsomes, 25 µM RD2) was -9.57%, the “inhibition of CYP3A4” value (CYP3A4; concentration range 0 to 25 µM) was “did not inhibit” and the inhibition at 0.25 µM (CYP3A4; human, human liver microsomes) was -0.223%. It also gave an inhibition at 1 µM (CYP3A4; human, human liver microsomes) of 5.77%, an inhibition at 2.5 µM (CYP3A4; human, human liver microsomes) of 1.71% and an inhibition at 10 µM (CYP3A4; human, human liver microsomes) of -3.08%. The inhibition at 25 µM (CYP3A4; human, human liver microsomes) was -12%, the “inhibition of CYP2C9” value (CYP2C9; concentration range 0 to 25 µM) was “did not inhibit” and the inhibition at 0.25 µM (CYP2C9; human, human liver microsomes) was 6.15%. It also gave an inhibition at 1 µM (CYP2C9; human, human liver microsomes) of -0.871%, an inhibition at 2.5 µM (CYP2C9; human, human liver microsomes) of 0.607% and an inhibition at 10 µM (CYP2C9; human, human liver microsomes) of -7.38%. It also gave an inhibition at 25 µM (CYP2C9; human, human liver microsomes) of -26.8%.
